# Earlier results as cited in US20100111874A1, “METHOD OF CANCER DETECTION AND TREATMENT” (University of Medicine and Dentistry of New Jresey, priority 2007, published 2010).
# System: human colon cancer xenografts
# Settings: combined with interferons; nude mice; cited from earlier work
smiles,measurement,value
CCc1c2c(nc3ccc(OC(=O)N4CCC(N5CCCCC5)CC4)cc13)-c1cc3c(c(=O)n1C2)COC(=O)[C@]3(O)CC [CPT-11],anticancer activity in combination with interferons,synergistic
